Values of other authors, collected in US20150276574A1, “CELL ANALYSIS METHOD” (SYSMEX CORPORATION, priority 2014, published 2015).

Details: not given

Molecule	Solubility in 100 g of water at 20° C.
CC(C)=CC(=O)O [3-methylcrotonic acid]	≥ 2 g

Same assay, conditions: 100 g of water, 20° C.

Molecule	Solubility in 100 g of water at 20° C.
CCC(O)C(=O)O (centres unmarked) [2-hydroxybutyric acid]	≥ 5 g
CC1=CC(=O)OC1=O [citraconic anhydride]	≥ 10 g
NC(=O)NCCC[C@H](N)C(=O)O [citrulline]	20 g
O=C(O)CCCC(=O)O [glutaric acid]	43 g
O=C(O)/C=C\C(=O)O [maleic acid]	44 g
O=C(O)CC(O)C(=O)O (centres unmarked) [malic acid]	5 g
aminobutanoic acid	≥ 5 g
